Measured values as given in US9725449B2, “Tricyclic compounds as anticancer agents” (BRISTOL-MYERS SQUIBB COMPANY, priority 2015, dated 2017).
Like-named read-outs stand apart in the source and are kept apart here.

Biological target: BRD4 (Homo sapiens, UniProt O60885)
Experiment: Time resolved fluorescence resonance energy transfer (TR-FRET) binding assay, bromodomain BRD4
Settings: one of the FRET assays described

| SMILES | IC50 (read-out: FRET BRD4 IC50) [nM] | IC50 (FRET BRD4 IC50 (nM)) [nM] |
| --- | --- | --- |
| Cc1nnn(C)c1-c1cnc2c3ccc(C(C)(C)O)nc3n([C@H](c3ccccc3)C3CCOCC3)c2c1 [Example 174, 2-[5-(Dimethyl-1H-1,2,3-triazol-5-yl)-8-[(S)-oxan-4-yl(phenyl)methyl]-3,8,10-triazatricyclo[7.4.0.0^2,^7]trideca-1(9),2(7),3,5,10,12-hexaen-11-yl]propan-2-ol] | < 1 | – |
| [2H]C([2H])([2H])c1nnn(C)c1-c1cnc2c3ccc(C(C)(C)O)nc3n([C@H](c3ccccc3)C3CCOCC3)c2c1 [Example 175, 2-{5-[4-(^2H3)Methyl-1-methyl-1H-1,2,3-triazol-5-yl]-8-[(S)-oxan-4-yl(phenyl)methyl]-3,8,10-triazatricyclo[7.4.0.0^2,^7]trideca-1(9),2(7),3,5,10,12-hexaen-11-yl}propan-2-ol] | < 10 | – |
| [2H]C([2H])([2H])c1nnn(C)c1-c1cnc2c3ccc(-c4ccc(C(C)(C)O)s4)nc3n([C@H](c3ccccc3)C3CCOCC3)c2c1 [Example 176, 2-(5-{5-[4-(^2H3)Methyl-1-methyl-1H-1,2,3-triazol-5-yl]-8-[(S)-oxan-4-yl(phenyl)methyl]-3,8,10-triazatricyclo[7.4.0.0^2,^7]trideca-1(9),2(7),3,5,10,12-hexaen-11-yl}thiophen-2-yl)propan-2-ol] | < 10 | – |
| [2H]C([2H])([2H])C(C)(O)c1ccc2c3ncc(-c4c(C)nnn4C)cc3n([C@H](c3ccccc3)C3CCOCC3)c2n1 (stereo partly drawn) [Example 177, 2-[5-(Dimethyl-1H-1,2,3-triazol-5-yl)-8-[(S)-oxan-4-yl(phenyl)methyl]-3,8,10-triazatricyclo[7.4.0.0^2,^7]trideca-1(9),2(7),3,5,10,12-hexaen-11-yl](1,1,1-^2H3)propan-2-ol] | < 1 | – |
| Cc1nnn(C)c1-c1cnc2c3ccc(N4CCOCC4)nc3n([C@H](c3ccccc3)C3CCOCC3)c2c1 [Example 178, 5-(Dimethyl-1H-1,2,3-triazol-5-yl)-11-(morpholin-4-yl)-8-[(S)-oxan-4-yl(phenyl)methyl]-3,8,10-triazatricyclo[7.4.0.0^2,^7]trideca-1(9),2(7),3,5,10,12-hexaene] | < 1 | – |
| Cc1nnn(C)c1-c1cnc2c3ccc(N4CC(O)C4)nc3n([C@H](c3ccccc3)C3CCOCC3)c2c1 [Example 179, 1-[5-(Dimethyl-1H-1,2,3-triazol-5-yl)-8-[(S)-oxan-4-yl(phenyl)methyl]-3,8,10-triazatricyclo[7.4.0.0^2,^7]trideca-1(9),2(7),3,5,10,12-hexaen-11-yl]azetidin-3-ol] | < 1 | – |
| Cc1nnn(C)c1-c1cnc2c3ccc(N4CCC(C)(O)CC4)nc3n([C@H](c3ccccc3)C3CCOCC3)c2c1 [Example 180, 1-[5-(Dimethyl-1H-1,2,3-triazol-5-yl)-8-[(S)-oxan-4-yl(phenyl)methyl]-3,8,10-triazatricyclo[7.4.0.0^2,^7]trideca-1(9),2(7),3,5,10,12-hexaen-11-yl]-4-methylpiperidin-4-ol] | < 1 | – |
| Cc1nnn(C)c1-c1cnc2c3ccc(N(C)C)nc3n([C@H](c3ccccc3)C3CCOCC3)c2c1 [Example 181, 5-(Dimethyl-1H-1,2,3-triazol-5-yl)-N,N-dimethyl-8-[(S)-oxan-4-yl(phenyl)methyl]-3,8,10-triazatricyclo[7.4.0.0^2,^7]trideca-1(9),2(7),3,5,10,12-hexaen-11-amine] | < 1 | – |
| Cc1nnn(C)c1-c1cnc2c3ccc(N4CCS(=O)(=O)CC4)nc3n([C@H](c3ccccc3)C3CCOCC3)c2c1 [Example 182, 4-[5-(Dimethyl-1H-1,2,3-triazol-5-yl)-8-[(S)-oxan-4-yl(phenyl)methyl]-3,8,10-triazatricyclo[7.4.0.0^2,^7]trideca-1(9),2(7),3,5,10,12-hexaen-11-yl]-1,4-thiomorpholine-1,1-dione] | < 1 | – |
| [2H]C([2H])([2H])c1nnn(C)c1-c1cnc2c3ccc(N4C5CCC4CC(O)C5)nc3n([C@H](c3ccccc3)C3CCOCC3)c2c1 (stereo partly drawn) [Example 183, 8-{5-[4-(^2H3)Methyl-1-methyl-1H-1,2,3-triazol-5-yl]-8-[(S)-oxan-4-yl(phenyl)methyl]-3,8,10-triazatricyclo[7.4.0.0^2,^7]trideca-1(9),2(7),3,5,10,12-hexaen-11-yl}-8-azabicyclo[3.2.1]octan-3-ol] | – | < 10 |
| [2H]C([2H])([2H])c1nnn(C)c1-c1cnc2c3ccc(N4C5CCCC4CC5)nc3n([C@H](c3ccccc3)C3CCOCC3)c2c1 [Example 184, 11-{8-Azabicyclo[3.2.1]octan-8-yl}-5-[4-(^2H3)methyl-1-methyl-1H-1,2,3-triazol-5-yl]-8-[(S)-oxan-4-yl(phenyl)methyl]-3,8,10-triazatricyclo[7.4.0.0^2,^7]trideca-1(9),2(7),3,5,10,12-hexaene] | – | < 10 |
| [2H]C([2H])([2H])c1nnn(C)c1-c1cnc2c3ccc(N4CCS(=O)(=O)CC4)nc3n([C@H](c3ccccc3)C3CCOCC3)c2c1 [Example 185, 4-{5-[4-(^2H3)Methyl-1-methyl-1H-1,2,3-triazol-5-yl]-8-[(S)-oxan-4-yl(phenyl)methyl]-3,8,10-triazatricyclo[7.4.0.0^2,^7]trideca-1(9),2(7),3,5,10,12-hexaen-11-yl}-1λ^6,4-thiomorpholine-1,1-dione] | < 10 | – |
| [2H]C([2H])([2H])c1nnn(C)c1-c1cnc2c3ccc(N4CC(N5CCS(=O)(=O)CC5)C4)nc3n([C@H](c3ccccc3)C3CCOCC3)c2c1 [Example 186, 4-(1-{5-[4-(^2H3)Methyl-1-methyl-1H-1,2,3-triazol-5-yl]-8-[(S)-oxan-4-yl(phenyl)methyl]-3,8,10-triazatricyclo[7.4.0.0^2,^7]trideca-1(9),2(7),3,5,10,12-hexaen-11-yl}azetidin-3-yl)-1λ^6,4-thiomorpholine-1,1-dione] | < 10 | – |
| COc1ccc(CNc2ccc3c4ncc(-c5c(C)nnn5C)cc4n([C@H](c4ccccc4)C4CCOCC4)c3n2)c(OC)c1 [Example 187, N-[(2,4-Dimethoxyphenyl)methyl]-5-(dimethyl-1H-1,2,3-triazol-5-yl)-8-[(S)-oxan-4-yl(phenyl)methyl]-3,8,10-triazatricyclo[7.4.0.0^2,^7]trideca-1(9),2(7),3,5,10,12-hexaen-11-amine] | < 10 | – |
| Cc1nnn(C)c1-c1cnc2c3ccc(N4CCN(S(C)(=O)=O)CC4)nc3n([C@H](c3ccccc3)C3CCOCC3)c2c1 [Example 188, 5-(Dimethyl-1H-1,2,3-triazol-5-yl)-11-(4-methanesulfonylpiperazin-1-yl)-8-[(S)-oxan-4-yl(phenyl)methyl]-3,8,10-triazatricyclo[7.4.0.0^2,^7]trideca-1(9),2(7),3,5,10,12-hexaene] | < 1 | – |
| [2H]C([2H])([2H])c1nnn(C)c1-c1cnc2c3ccc(NCCS(C)(=O)=O)nc3n([C@H](c3ccccc3)C3CCOCC3)c2c1 [Example 189, N-(2-Methanesulfonylethyl)-5-[4-(^2H3)methyl-1-methyl-1H-1,2,3-triazol-5-yl]-8-[(S)-oxan-4-yl(phenyl)methyl]-3,8,10-triazatricyclo[7.4.0.0^2,^7]trideca-1(9),2(7),3,5,10,12-hexaen-11-amine] | < 1 | – |
| Cc1nnn(C)c1-c1cnc2c3ccc(N4CCC(S(C)(=O)=O)CC4)nc3n([C@H](c3ccccc3)C3CCOCC3)c2c1 [Example 192, 5-(Dimethyl-1H-1,2,3-triazol-5-yl)-11-(4-methanesulfonylpiperidin-1-yl)-8-[(S)-oxan-4-yl(phenyl)methyl]-3,8,10-triazatricyclo[7.4.0.0^2,^7]trideca-1(9),2(7),3,5,10,12-hexaene] | < 1 | – |
| [2H]C([2H])([2H])c1nnn(C)c1-c1cnc2c3ccc(N4CC(C)S(=O)(=O)C(C)C4)nc3n([C@H](c3ccccc3)C3CCOCC3)c2c1 (stereo partly drawn) [Example 193, 2,6-Dimethyl-4-{5-[4-(^2H3)methyl-1-methyl-1H-1,2,3-triazol-5-yl]-8-[(S)-oxan-4-yl(phenyl)methyl]-3,8,10-triazatricyclo[7.4.0.0^2,^7]trideca-1(9),2(7),3,5,10,12-hexaen-11-yl}-1λ^6,4-thiomorpholine-1,1-dione] | < 1 | – |
| CSc1ccc2c3ncc(-c4c(C)nnn4C)cc3n([C@H](c3ccccc3)C3CCOCC3)c2n1 [Example 194, 5-(Dimethyl-1H-1,2,3-triazol-5-yl)-11-(methylsulfanyl)-8-[(S)-oxan-4-yl(phenyl)methyl]-3,8,10-triazatricyclo[7.4.0.0^2,^7]trideca-1(9),2(7),3,5,10,12-hexaene] | < 10 | – |
| Cc1nnn(C)c1-c1cnc2c3ccc(S(N)(=O)=O)nc3n([C@H](c3ccccc3)C3CCOCC3)c2c1 [Example 195, 5-(Dimethyl-1H-1,2,3-triazol-5-yl)-8-[(S)-oxan-4-yl(phenyl)methyl]-3,8,10-triazatricyclo[7.4.0.0^2,^7]trideca-1(9),2(7),3,5,10,12-hexaene-11-sulfonamide] | < 10 | – |
| Cc1nnn(C)c1-c1cnc2c3ccc(S(=O)(=O)N4CCCC4)nc3n([C@H](c3ccccc3)C3CCOCC3)c2c1 [Example 196, 5-(Dimethyl-1H-1,2,3-triazol-5-yl)-8-[(S)-oxan-4-yl(phenyl)methyl]-11-(pyrrolidine-1-sulfonyl)-3,8,10-triazatricyclo[7.4.0.0^2,^7]trideca-1(9),2(7),3,5,10,12-hexaene] | < 10 | – |
| Cc1nnn(C)c1-c1cnc2c3ccc(S(=O)(=O)N4CCOCC4)nc3n([C@H](c3ccccc3)C3CCOCC3)c2c1 [Example 197, 5-(Dimethyl-1H-1,2,3-triazol-5-yl)-11-(morpholine-4-sulfonyl)-8-[(S)-oxan-4-yl(phenyl)methyl]-3,8,10-triazatricyclo[7.4.0.0^2,^7]trideca-1(9),2(7),3,5,10,12-hexaene] | < 10 | – |
| Cc1nnn(C)c1-c1cnc2c3ccc(S(=O)(=O)N4CCN(C)CC4)nc3n([C@H](c3ccccc3)C3CCOCC3)c2c1 [Example 198, 5-(Dimethyl-1H-1,2,3-triazol-5-yl)-11-[(4-methylpiperazin-1-yl)sulfonyl]-8-[(S)-oxan-4-yl(phenyl)methyl]-3,8,10-triazatricyclo[7.4.0.0^2,^7]trideca-1(9),2(7),3,5,10,12-hexaene] | < 10 | – |
